# How the values were obtained:
# [1] = target: T1, Sestrin2-GATOR2 complex (Homo sapiens, UniProt P58004); test: Amino acids added directly to immunopurified Sestrin2-GATOR2 complexes (immunoblot); format: binding
# T1 construct: To isolate the FLAG-WDR24/endogenous-Sestrin2 complex; endogenous in cells; host or cells: HEK-293T cells stably expressing FLAG-WDR24; Sestrin2 and the other GATOR2 subunits are endogenous
# T1 sequence (P58004 1-480): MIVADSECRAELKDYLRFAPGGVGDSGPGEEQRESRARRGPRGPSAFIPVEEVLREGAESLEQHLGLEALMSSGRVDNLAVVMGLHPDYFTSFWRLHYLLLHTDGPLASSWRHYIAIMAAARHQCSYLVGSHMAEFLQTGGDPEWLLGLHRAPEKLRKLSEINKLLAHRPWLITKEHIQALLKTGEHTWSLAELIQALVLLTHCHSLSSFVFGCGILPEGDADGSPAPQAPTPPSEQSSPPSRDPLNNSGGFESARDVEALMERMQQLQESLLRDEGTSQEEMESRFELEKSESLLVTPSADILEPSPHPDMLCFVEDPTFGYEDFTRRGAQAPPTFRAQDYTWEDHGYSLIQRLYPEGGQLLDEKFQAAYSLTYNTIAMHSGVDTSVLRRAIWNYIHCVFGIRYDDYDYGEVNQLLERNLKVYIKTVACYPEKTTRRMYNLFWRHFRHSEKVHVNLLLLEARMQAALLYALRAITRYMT
# Protocol: We next tested if leucine acts directly on the Sestrin2-GATOR2 complex.
# HEK-293T cells stably expressing FLAG-WDR24 were starved for all amino acids for 50 minutes, lysed and subjected to anti-FLAG immunoprecipitation as described previously. The GATOR2-Sestrin2 complexes immobilized on the agarose beads were washed twice in lysis buffer with 500 mM NaCl, as previously described, and then incubated for 10 minutes in 1 mL of cytosolic buffer with the indicated concentrations of individual amino acids. The amount of GATOR2 and Sestrin2 that remained bound was assayed by SDS-PAGE and immunoblotting as described previously.
# [2] = target: T2, bacterially-produced Sestrin2 (Homo sapiens, UniProt P58004); test: [3H]-leucine binding to bacterially-produced His-MBP-Sestrin2 on Ni-NTA resin; details: RagA-RagC heterodimer as control
# T2 construct: made in house; host or cells: Escherichia coli BL21 DE3 star
# T2 sequence (P58004 1-480): T1 sequence (P58004 1-480)
# Protocol: Recombinant Sestrin2 was expressed in Escherichia coli (strain BL21 DE3 star) from the His-MBP-TEV-Sestrin2 in pMAL6H-CSXT plasmid. The bacterial cultures were grown at 30° C. to an optical density of 0.4 at which point the temperature was lowered to 18° C. After 30 minutes at 18° C., the cultures were induced overnight at 18° C. with 0.5 mM IPTG. The cells were subsequently resuspended in lysis buffer with TCEP (50 mM Tris pH 7.4, 200 mM NaCl, 5 mM MgCl2, 0.1% CHAPS, 1 mM TCEP, 200 μM leucine, and protease inhibitor tablets), which was then supplemented with lysozyme and crude DNAse. The cells underwent mechanical homogenization and the lysates were cleared by centrifugation and then loaded onto the Ni-NTA resin. […]
# For binding assays performed with bacterially-produced proteins, 23.6 μg His-RagA/RagC, 23.6 μg His-MBP-TEV-Sestrin2, or 73.6 μg His-MBP-TEV-Sestrin2 were diluted into 500 μl lysis buffer (50 mM Tris pH 7.4, 200 mM NaCl, 5 mM MgCl2, 0.1% CHAPS) and incubated with 15 μl compact Ni-NTA resin as previously described. […] The samples were then well mixed with a cut tip and 10 μl of each was loaded into scintillation fluid in triplicate and quantified with a TriCarb® Scintillation Counter. Samples performed in parallel were eluted with lysis buffer+300 mM imidazole and analyzed by SDS-PAGE as described above.
compound,measurement,setting,value
CC(C)C[C@H](N)C(=O)O [leucine],effect on the Sestrin2-GATOR2 interaction in vitro,"[1]; 300 μM each, added directly to FLAG immunoprecipitates",disrupted the interaction
same,EC50,"[1]; added to purified complexes from amino acid-starved cells, equilibrium not attained, relative potency only, read-out: half maximal effect on disruption of the Sestrin2-GATOR2 complex",~1 µM
same,binding of radiolabelled leucine to bacterially-produced Sestrin2,[2],bound to bacterially-produced Sestrin2

# Reference: patent US10168338B2, “Methods of identifying modulators of sestrin-gator-2 interaction for modulating mTORC1 activity” (Whitehead Institute for Biomedical Research, priority 2014, dated 2019)
